Reference: US10206937B2, “Boronic acid derivatives and therapeutic uses thereof” (Qpex Biopharma, Inc., priority 2014, dated 2019)

Experiments:
NDM-1 [1] = target: T1, NDM-1 (Klebsiella pneumoniae, UniProt C7C422); assay: Inhibition of purified class B carbapenemase NDM-1 (Ki, imipenem substrate); format: biochemical; conditions: NDM-1, substrate imipenem; read-out: Ki NDM-1, Imipenem
[2] = target: T2, purified class A, C and D enzymes (UniProt P0AD64, L31Q/G234S/E235K, species not given); format: biochemical; conditions: read-out: Ki (SHV-12, NCF); purified SHV-12; nitrocefin reporter substrate
T2 construct: Ki (SHV-12, NCF); other: purified SHV-12; nitrocefin reporter substrate
T2 sequence (P0AD64 1-286 L31Q/G234S/E235K): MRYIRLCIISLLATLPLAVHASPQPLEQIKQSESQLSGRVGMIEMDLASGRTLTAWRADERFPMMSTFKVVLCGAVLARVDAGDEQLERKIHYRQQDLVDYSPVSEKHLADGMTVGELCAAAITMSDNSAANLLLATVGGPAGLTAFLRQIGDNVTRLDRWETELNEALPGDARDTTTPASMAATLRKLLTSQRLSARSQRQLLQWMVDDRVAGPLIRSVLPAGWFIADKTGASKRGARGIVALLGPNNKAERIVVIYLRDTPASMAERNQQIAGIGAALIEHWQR

[3] = target: purified class A, C and D enzymes (Enterobacter cloacae, UniProt P05364); format: biochemical; conditions: purified P99/AmpC of ECL; nitrocefin reporter substrate
[4] = target: T3, purified class A, C and D enzymes (UniProt Q9F663); format: biochemical; conditions: read-out: Ki (KPC-2, NCF); purified KPC-2; nitrocefin reporter substrate
T3 construct: rows headed: Ki (KPC-2, NCF); other: purified KPC-2; nitrocefin reporter substrate

[5] = target: T4, purified class A, C and D enzymes (UniProt Q6XEC0); format: biochemical; conditions: read-out: Ki (OXA-48, NCF); purified OXA-48; nitrocefin reporter substrate
T4 construct: rows headed: Ki (OXA-48, NCF); other: purified OXA-48; nitrocefin reporter substrate

[6] = target: purified class A, C and D enzymes (Escherichia coli, UniProt Q9L5C7); format: biochemical; conditions: purified CTX-M-14; nitrocefin reporter substrate
NDM-1 [7] = target: T1, NDM-1; assay: biochemical; conditions: cleavage of imipenem (100 uM) by NDM-1; read-out: Ki, Imipenem
VIM-1 = target: T5, VIM-1 (Pseudomonas aeruginosa, UniProt A0A0F7KYQ8); assay: biochemical; conditions: cleavage of nitrocefin (200 uM) by VIM-1 supernatant
T5 construct: made in house; host or cells: ECM6711 strain carrying pUCP24-VIM-1 plasmid; culture supernatant used unpurified

Sequence of purified class A, C and D enzymes (Escherichia coli, UniProt Q9L5C7) (Q9L5C7 entry or part of it): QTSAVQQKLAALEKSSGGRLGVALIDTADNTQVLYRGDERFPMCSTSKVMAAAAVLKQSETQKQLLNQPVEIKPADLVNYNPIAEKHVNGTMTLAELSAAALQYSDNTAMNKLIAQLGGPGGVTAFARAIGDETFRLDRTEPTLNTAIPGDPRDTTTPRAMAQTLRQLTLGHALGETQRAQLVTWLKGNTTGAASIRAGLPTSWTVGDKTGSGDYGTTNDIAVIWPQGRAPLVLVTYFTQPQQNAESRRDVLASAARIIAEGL
Sequence of purified class A, C and D enzymes (Enterobacter cloacae, UniProt P05364) (P05364 21-381): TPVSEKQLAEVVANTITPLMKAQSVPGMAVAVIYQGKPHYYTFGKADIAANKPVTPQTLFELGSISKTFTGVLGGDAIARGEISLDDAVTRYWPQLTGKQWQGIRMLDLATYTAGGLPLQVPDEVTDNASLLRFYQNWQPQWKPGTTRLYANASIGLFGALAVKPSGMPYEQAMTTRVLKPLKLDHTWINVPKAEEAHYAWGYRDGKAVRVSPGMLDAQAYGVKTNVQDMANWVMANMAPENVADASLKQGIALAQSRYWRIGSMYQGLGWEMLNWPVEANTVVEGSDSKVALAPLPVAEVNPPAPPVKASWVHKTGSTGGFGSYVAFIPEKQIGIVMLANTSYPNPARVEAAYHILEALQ
T1 sequence (C7C422 29-270, looked up, species assumed): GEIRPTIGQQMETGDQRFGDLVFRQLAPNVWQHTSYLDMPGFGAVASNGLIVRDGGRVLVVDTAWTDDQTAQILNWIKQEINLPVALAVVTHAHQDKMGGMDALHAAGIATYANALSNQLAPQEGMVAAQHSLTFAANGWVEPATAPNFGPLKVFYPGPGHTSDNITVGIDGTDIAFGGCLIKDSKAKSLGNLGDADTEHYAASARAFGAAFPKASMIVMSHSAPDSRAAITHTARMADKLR

SMILES | Ki (NDM-1 [1]) | Ki [2] | Ki (P99/AmpC of ECL, NCF) [3] | Ki [4] | Ki [5] | Ki (CTX-M-14, NCF) [6] | Ki (NDM-1 [7]) | IC50 (VIM-1)
COc1ccc2c(c1C(=O)O)OB(O)[C@@H](Sc1nnc(SCCN)s1)C2 [Compound 107, (3R)-3-[[5-(2-aminoethylsulfanyl)-1,3,4-thiadiazol-2-yl]sulfanyl]-2-hydroxy-7-methoxy-3,4-dihydro-1,2-benzoxaborinine-8-carboxylic acid] | < 10 nM | < 100 nM | Y (0.1 μM to 1 μM) | 100 to 1000 nM | < 100 nM | X (Less than 0.1 μM) | < 10 nM | < 1000 nM
COc1ccc2c(c1C(=O)O)OB(O)[C@@H](Sc1nnc(SC(CN)CN)s1)C2 [Compound 109, (3R)-3-[[5-[2-amino-1-(aminomethyl)ethyl]sulfanyl-1,3,4-thiadiazol-2-yl]sulfanyl]-2-hydroxy-7-methoxy-3,4-dihydro-1,2-benzoxaborinine-8-carboxylic acid] | < 10 nM | < 100 nM | Y (0.1 μM to 1 μM) | 100 to 1000 nM | < 100 nM | X (Less than 0.1 μM) | < 10 nM | < 1000 nM
COc1ccc2c(c1C(=O)O)OB(O)[C@@H](Sc1nnc(NC(CN)CN)s1)C2 [Compound 102, (3R)-3-[[5-[[2-amino-1-(aminomethyl)ethyl]amino]-1,3,4-thiadiazol-2-yl]sulfanyl]-2-hydroxy-7-methoxy-3,4-dihydro-1,2-benzoxaborinine-8-carboxylic acid] | < 10 nM | < 100 nM | Z (Greater than 1 μM) | > 1000 nM | 100 to 1000 nM | X (Less than 0.1 μM) | < 10 nM | < 1000 nM
O=CNc1cnc(S[C@H]2Cc3ccc(F)c(C(=O)O)c3OB2O)s1 [Compound 58, (3R)-7-fluoro-3-(5-formamidothiazol-2-yl)sulfanyl-2-hydroxy-3,4-dihydro-1,2-benzoxaborinine-8-carboxylic acid] | > 100 nM | < 100 nM | Y (0.1 μM to 1 μM) | 100 to 1000 nM | < 100 nM | X (Less than 0.1 μM) | > 100 nM | < 1000 nM
NC(=O)CS[C@H]1Cc2ccc(F)c(C(=O)O)c2OB1O [Compound 49, (3R)-3-(2-amino-2-oxo-ethyl)sulfanyl-7-fluoro-2-hydroxy-3,4-dihydro-1,2-benzoxaborinine-8-carboxylic acid] | > 100 nM | < 100 nM | Y (0.1 μM to 1 μM) | < 100 nM | < 100 nM | X (Less than 0.1 μM) | > 100 nM | ≥ 1000 nM
NCc1cnc(S[C@H]2Cc3ccc(F)c(C(=O)O)c3OB2O)s1 [Compound 57, (3R)-3-[5-(aminomethyl)thiazol-2-yl]sulfanyl-7-fluoro-2-hydroxy-3,4-dihydro-1,2-benzoxaborinine-8-carboxylic acid] | 10 to 100 nM | < 100 nM | Z (Greater than 1 μM) | 100 to 1000 nM | < 100 nM | X (Less than 0.1 μM) | 10 to 100 nM | < 1000 nM
NC(=O)c1csc(S[C@H]2Cc3ccc(F)c(C(=O)O)c3OB2O)n1 [Compound 54, (3R)-3-(4-carbamoylthiazol-2-yl)sulfanyl-7-fluoro-2-hydroxy-3,4-dihydro-1,2-benzoxaborinine-8-carboxylic acid] | > 100 nM | < 100 nM | Y (0.1 μM to 1 μM) | < 100 nM | < 100 nM | X (Less than 0.1 μM) | > 100 nM | < 1000 nM
